Test results: paper PMC7358525, “Characterization of PF-6142, a Novel, Non-Catecholamine Dopamine Receptor D1 Agonist, in Murine and Nonhuman Primate Models of Dopaminergic Activation” (Frontiers in Pharmacology, 2020)

Columns and labels:
[1] = system: ketamine-induced working memory deficits; test: Ketamine-disrupted radial arm maze (RAM); format: in vivo, rat; conditions: 0.01, 0.056, 0.178, 0.56 mg/kg s.c., 90 min before ketamine 10 mg/kg
Description: Two cohorts of adult male Long-Evans rats (N=30 each) were trained in a spatial working memory task on an eight-arm RAM, (Pathfinder Maze System, Lafayette Instrument Co., Lafayette, IN), using a procedure adapted from [Ward et al. (1990)] and described in detail in [Strick et al. (2011)]. Briefly, rats were food-restricted to provide motivation to perform the RAM task. The task requires that the animals enter each arm to retrieve a reinforcement food pellets, using spatial cues in the room to remember which arms of the maze they have previously entered. Rats were individually placed on the maze and allowed to navigate until all eight arms were entered and the pellets were consumed or until 30 choices were made, or until 5 min had elapsed. Entry into an arm previously entered was counted as an error. […] Training continued until all animals had reached the training criterion, defined as two or fewer errors on two consecutive days. […] Performance on the maze was evaluated 30 min later by an observer that was blinded to treatments.
The R 3.0.1 statistical software was used to compare the error rate data. The effects of treatment and the interaction on the error rate were assessed using a one-way mixed model ANOVA using generalized least squares method from lme4 library. […]

[2] = system: ketamine-induced working memory deficits; test: Spatial delayed response (SDR) task in the nonhuman primate; format: in vivo, rhesus monkeys
Description: This study was designed to test the hypothesis that PF-6142 would provide significant protection versus the ketamine-induced working memory deficits in nonhuman primates.
Rhesus monkeys were trained to stability on a variable SDR task in a sound-attenuated Wisconsin General Testing Apparatus ([Roberts et al., 2010]). Briefly, subjects observe while the investigator baiting one of two to seven wells with a highly preferred food reward and then covers all the wells with identical square plaques. An opaque screen is then lowered for one of five variable delays, which are pseudorandomized across trials within a session. Thus, delays are defined as 0–4 N, where “N” is a value that is animal dependent and ranges from 1 to 10 s depending upon the difficulty level of the task at which an animal reaches the criterion of stable performance. At the end of the delay period, the opaque screen is raised, and the animal must select the well that had been baited to obtain a reward. Each test session consists of 20 trials wherein both the baited well and delay length are pseudorandomized across trials. Before study initiation, all subjects were required to reach stability over a period of 10 consecutive test sessions, where stability was defined as an average of 65–75% correct. Stability was attained by varying the number of wells and the delay value for each animal. Subjects were originally trained on a two-well board with an N value of 1. […] Once stability was attained for a given number of wells and N value, that combination was kept constant throughout the course of the study ([Roberts et al., 2010]). The range of stable performance for the 10 subjects was two to five wells and an N value of 1–7 s (median, four-well testing board, N = 5 s). Data were transformed using logarithmic function [log(x+5)] to improve normality and analyzed using ANOVA.
Subjects received pretreatment with vehicle (sterile saline solution) or PF-6142 (0.0015, 0.015, 0.15 mg/kg, s.c.) 4 h before cognitive testing. They then received an intramuscular injection of either vehicle (sterile saline) or ketamine (0.7–1.7 mg/kg; Fort Dodge Co.) 0.25 h before cognitive testing. […] Thus, for the present study, one monkey received 0.7 mg/kg, seven monkeys received 1.0 mg/kg, and two monkeys received 1.7 mg/kg of ketamine. The vehicle/PF-6142 and vehicle/ketamine treatments were assigned using a randomized Latin square design with a total of eight conditions. Except for the vehicle/vehicle condition, there was a minimum 2-week washout period between all acute challenges during which time animals were required to “restabilize” to baseline performance levels, which was defined as at least three consecutive testing sessions wherein cognitive performance ranged between 65% and 75% correct.

[3] = system: MK-801-disrupted paired-pulse facilitation; test: Paired-pulse facilitation (PPF), CA1/subiculum to mPFC, urethane-anesthetized rat; format: in vivo
Experimental: Experiments were performed on n=10 adult male Sprague-Dawley rats (275–305 g) under urethane anesthesia (1.5 g/kg, i.p.). The femoral vein was cannulated for i.v. administration of drugs. A stimulation electrode was placed in the CA1/subiculum region (coordinates: A-P = +6.3 mm, M–L = +5.2 mm, D-V = +8.0 mm) using stereotactic methods and unilateral local field potential (LFP) was recorded by a metal monopolar macroelectrode placed into the medial PFC (mPFC; coordinates: A-P = +3.0 mm, M-L = +0.6 mm, D-V = +5.0 mm). […] Evoked responses to the first and the second stimuli were identified (P1 and P2, respectively) and the amount of PPF determined by the formula: (P2 amplitude/P1 amplitude). Waveform averages used to calculate PPF consisted of 60 consecutive stimuli. Five minutes were allowed between administration of each drug dose and the starting of the subsequent average of each 10-min period after each cumulative dose (0.1–1 mg/kg, IV). Disruption in power of LFP delta activity was measured as the percentage of power in low frequency (0–1.8 Hz) irregular activity in the total (0–4 Hz) delta power range. LFP power spectra were determined during periods concurrent with waveform averages and PPF calculation. Statistical significance was determined by means of two-tailed paired Student’s t-test.

human D5 receptor = conditions: stated in discussion, no data or reference printed; cited from earlier work

Cc1cc(Oc2nccc3occc23)ccc1-c1c(C)ncc2nccn12 [PF-6142]
ketamine-induced error rate in RAM [1]: decreased the ketamine-induced error rate at all, except for the lowest dose administered
percent correct on the SDR task after pretreatment + ketamine (range over doses) ([2]; PF-6142 0.0015-0.15 mg/kg s.c. 4 h before testing): 42.5–52.1%
improvement of performance vs ketamine ([2]; PF-6142 0.0015-0.15 mg/kg s.c., all doses): more than 10 % correct
working memory performance under normal conditions (pretreatment followed by placebo) ([2]; PF-6142 without ketamine): no effect on its own
PPF values vs MK-801 challenge ([3]; PF-6142 1.0 mg/kg IV cumulative (p=0.006)): significantly higher PPF values
effect on MK-801-induced changes in PPF after SCH-23390 pretreatment ([3]; PF-6142 1.0-3.0 mg/kg IV cumulative (3 mg/kg: p=0.89)): no significant effect
ED50 for reversal of MK-801-induced effects on PPF ([3]; cumulative IV, Spearman-Karber, 95% confidence levels 0.21-0.57 mg/kg, n=5): 0.35 mg/kg
affinity (human D5 receptor): moderate affinity
